From ChEMBL document CHEMBL1201862, “PubChem BioAssay data set” (2004)
The source made the active and inactive calls.

Legend:
Protein Wnt-3a = Protein Wnt-3a (Mus musculus, UniProt P27467); experiment: SAR analysis of small molecule antagonists of Gli-SUFU in a Wnt3a luminescent reporter assay.; type: functional
cells [1] = type: functional, cell-based; settings: HEK-CNG
cells [2] = experiment: cells
Galanin receptor type 3 = molecular target: T1, Galanin receptor type 3 (Homo sapiens, UniProt O60755); experiment: Fluorescence-based cell-based primary high throughput dose response assay to identify antagonists of the Galanin Receptor 3 (GalR3).; type: functional
T1 sequence (O60755 whole entry): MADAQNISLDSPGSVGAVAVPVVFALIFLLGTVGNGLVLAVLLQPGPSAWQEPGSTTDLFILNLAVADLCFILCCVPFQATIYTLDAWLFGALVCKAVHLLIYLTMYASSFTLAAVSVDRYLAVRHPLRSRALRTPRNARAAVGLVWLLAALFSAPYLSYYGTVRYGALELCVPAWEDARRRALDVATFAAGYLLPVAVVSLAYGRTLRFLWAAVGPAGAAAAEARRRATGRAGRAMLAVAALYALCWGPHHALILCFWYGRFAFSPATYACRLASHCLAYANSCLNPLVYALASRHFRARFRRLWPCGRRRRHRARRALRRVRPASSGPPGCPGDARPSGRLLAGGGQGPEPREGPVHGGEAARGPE

Major prion protein = Major prion protein (Homo sapiens, UniProt P04156); type: functional, cell-based
[3] = HepG2 cell cytotoxicity, dose response, cytotoxicity control for Shn3 inhibitor project, CellTiter-Glo, cherry-picked (AID 624134); type: functional, cell-based
[4] = control 3'UTR Renilla luciferase suppression, dose response, counter-screen for Shn3 inhibitor project, cell-based, Clone20-Shn3RL, cherry-picked (AID 624133); type: functional
[5] = molecular target: 1-phosphatidylinositol 4,5-bisphosphate phosphodiesterase gamma-1 (Homo sapiens, UniProt P19174); experiment: Counterscreen for inhibitors of phospholipase C isozymes (PLC-B3): Fluorescence-based biochemical high throughput dose response assay to identify inhibitors of phospholipase C isozymes (PLC-gamma1).
[6] = molecular target: 1-phosphatidylinositol 4,5-bisphosphate phosphodiesterase beta-3 (Homo sapiens, UniProt Q01970); experiment: Fluorescence-based biochemical high throughput dose response assay to identify inhibitors of phospholipase C isozymes (PLC-B3).
[7] = Shn3 3'UTR reporter inhibitors, dose response, cell-based, Clone20 osteoblasts, firefly luciferase, cherry-picked (AID 624132); type: functional;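 further: firefly luciferase luminescence from reporter carrying the Shn3 3'UTR in osteoblasts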
[8] = HEK293T cytotoxicity, dose response, cytotoxicity control for miR-122 modulator project, cell-based, inhibitor set, cherry-pick, set 2 (AID 720697); type: functional
[9] = molecular target: Glucose-6-phosphate 1-dehydrogenase (Homo sapiens, UniProt P11413); experiment: human G6PD enzyme inhibitors, dose response, selectivity assay for P. falciparum G6PD inhibitor project, biochemical, fluorescence (AID 504792); type: functional
[10] = molecular target: T2, Endoribonuclease toxin MazF (Escherichia coli K-12, UniProt P0AE70); experiment: fluorescent RNA oligo signal without MazF, dose response, counter-screen for MazEF activator project, biochemical, fluorescence, single-stranded RNase substrate (AID 588502); type: functional
T2 sequence (P0AE70 whole entry): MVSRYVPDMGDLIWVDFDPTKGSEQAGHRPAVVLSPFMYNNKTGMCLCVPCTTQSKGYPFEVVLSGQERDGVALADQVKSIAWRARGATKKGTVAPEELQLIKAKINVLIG

Caspase-6 = molecular target: T3, Caspase-6 (Homo sapiens, UniProt P55212); experiment: human caspase-6 inhibitors, dose response, biochemical, VEID-R110 fluorescence, cherry-pick (AID 720632)
T3 sequence (P55212 whole entry): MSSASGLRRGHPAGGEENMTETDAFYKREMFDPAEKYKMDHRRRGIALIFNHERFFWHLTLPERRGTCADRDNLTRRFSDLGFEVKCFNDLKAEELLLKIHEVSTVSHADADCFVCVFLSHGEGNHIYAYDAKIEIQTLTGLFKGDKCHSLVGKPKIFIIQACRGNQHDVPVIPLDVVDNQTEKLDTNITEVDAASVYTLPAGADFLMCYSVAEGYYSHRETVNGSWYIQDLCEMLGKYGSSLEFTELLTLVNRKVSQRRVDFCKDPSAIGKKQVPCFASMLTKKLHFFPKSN

Caspase-7 = molecular target: T4, Caspase-7 (Homo sapiens, UniProt P55210); experiment: human caspase-7 inhibitors, dose response, selectivity assay for caspase-6 inhibitor project, biochemical, DEVD-R110 fluorescence, cherry-pick (AID 743295)
T4 sequence (P55210 whole entry): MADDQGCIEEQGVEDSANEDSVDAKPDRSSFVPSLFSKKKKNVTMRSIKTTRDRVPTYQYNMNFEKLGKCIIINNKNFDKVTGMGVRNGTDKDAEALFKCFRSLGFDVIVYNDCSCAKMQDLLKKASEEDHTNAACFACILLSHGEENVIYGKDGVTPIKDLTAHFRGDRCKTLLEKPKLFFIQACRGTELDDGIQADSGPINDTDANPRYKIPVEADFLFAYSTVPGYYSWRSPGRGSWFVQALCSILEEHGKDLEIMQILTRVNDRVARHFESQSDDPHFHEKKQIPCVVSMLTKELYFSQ

[11] = molecular target: T2, Endoribonuclease toxin MazF; experiment: MazF toxin RNase activators, dose response, biochemical, fluorescence, single-stranded RNA substrate, uHTS hits (AID 588481); type: functional
Beta-galactosidase = Beta-galactosidase (Escherichia coli, UniProt Q8VNN2); experiment: Dose response counterscreen for EBI2 assay utilizing the enzyme, b-galactosidase.; type: functional
fMet-Leu-Phe receptor = fMet-Leu-Phe receptor (Homo sapiens, UniProt P21462); experiment: FPR ligands, dose response (AID 519); type: functional
cells [12] = type: functional, cell-based
[13] = molecular target: T5, Nuclear receptor subfamily 0 group B member 1 (Homo sapiens, UniProt P51843); type: functional, cell-based;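 further: HEK293T cells transfected with SF-1 and DAX-1 plus StAR promoter luciferase reporter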
T5 sequence (P51843 whole entry): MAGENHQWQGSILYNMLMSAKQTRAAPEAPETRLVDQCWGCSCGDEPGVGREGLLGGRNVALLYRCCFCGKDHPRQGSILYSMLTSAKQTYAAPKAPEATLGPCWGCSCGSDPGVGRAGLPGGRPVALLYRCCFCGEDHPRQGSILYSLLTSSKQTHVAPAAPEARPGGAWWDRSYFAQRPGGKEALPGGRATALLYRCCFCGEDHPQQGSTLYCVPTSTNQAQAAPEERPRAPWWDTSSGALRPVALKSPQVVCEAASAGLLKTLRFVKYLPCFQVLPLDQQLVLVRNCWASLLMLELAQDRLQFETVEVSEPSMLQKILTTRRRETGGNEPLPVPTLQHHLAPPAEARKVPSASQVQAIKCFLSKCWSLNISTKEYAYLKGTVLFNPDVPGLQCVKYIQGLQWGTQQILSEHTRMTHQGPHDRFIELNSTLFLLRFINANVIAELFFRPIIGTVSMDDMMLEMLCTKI

[14] = cytotoxicity in OVCAR8 ovarian cancer cells, dose response, PAX8 project, cell-based, plate reader, dry powder samples (AID 743197); type: functional; settings: OVCAR-8
Paired box protein Pax-8 = Paired box protein Pax-8 (Homo sapiens, UniProt Q06710); experiment: inhibitors of PAX8-driven TPO luciferase reporter, dose response, RMG-I cells, cherry-pick (AID 687027); type: functional, cell-based;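 further: luciferase reporter driven by Pax8 target thyroperoxidase promoter measured by SteadyGlo luminescence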
[15] = IGROV1 ovarian cancer cell cytotoxicity, dose response, PAX8 inhibitor project, plate reader, dry powder samples (AID 743043); type: functional, cell-based; settings: IGROV-1

## CCN(CC)c1cc(NC(=O)c2ccccc2)nc(C)n1
Protein Wnt-3a
  IC50: > 21.8 µM (inactive)

## Cc1cc(Br)cn2c(Cc3cccc(Cl)c3)c(-c3ccco3)nc12
Cells [1]
  EC50: > 29.9 µM (inactive)
Cells [2]
  IC50: 66.2 µM (inactive)
Galanin receptor type 3
  IC50: 8.41 µM (active)
Major prion protein
  IC50: 10.5 µM (inactive)

## O=C(c1cccc(S(=O)(=O)N2CCN(c3ccc(F)cc3)CC2)c1)N1CCCC(C(F)(F)F)C1 (stereo not given)
[3]
  AC50: 2.61 µM (active)
[4]
  AC50: 8.1 µM (active)
[5]
  IC50: > 122 µM (inactive)
[6]
  IC50: > 122 µM (inactive)
[7]
  AC50: 0.942 µM (active)

## COc1ccccc1C(=O)N1C[C@@H]2[C@H](c3ccccc31)[C@H](CO)N2CC1CCCC1
[8]
  AC50: 9.28 µM (active)

## Cc1ccc([S+]([O-])c2ccc([N+](=O)[O-])c3nonc23)cc1 (stereo not given)
[9]
  IC50: 42.3 µM (inactive)
[10]
  EC50: > 99 µM (inactive)
Caspase-6
  AC50: 2.56 µM (active)
Caspase-7
  AC50: > 70 µM (inactive)
[11]
  EC50: > 99 µM (inactive)

## Cc1ccc(NC2=CC(=O)CC(c3ccc(Cl)cc3)C2)cc1 (stereo not given)
Beta-galactosidase
  IC50: > 80 µM (inactive)

## CNC(=O)C[C@@H]1CC[C@@H]2[C@H](COc3ccc(NC(=O)Nc4ccc(Cl)cc4)cc3C(=O)N2C)O1
[8]
  AC50: 0.415 µM (active)

## COc1ccccc1N1CCN(C(=O)c2cc(-c3ccc(F)cc3)[nH]c2C)CC1
Beta-galactosidase
  IC50: > 80 µM (inactive)

## CCOc1ccc(C(=O)C2=C(O)C(=O)N(CC3CCCO3)C2c2ccc(C)o2)cc1 (stereo not given)
fMet-Leu-Phe receptor
  Ki: 21.1 µM (inactive)

## C/C(=N\NC(=O)c1ccccc1O)c1cccs1
Cells [12]
  IC50: > 67.5 µM (inactive)
[13]
  IC50: > 67.5 µM (inactive)

## C[C@@H]1CN([C@@H](C)CO)C(=O)c2cc(NC(=O)Cc3ccccc3)ccc2O[C@@H](C)CCCCO[C@@H]1CN(C)Cc1ccc(C(F)(F)F)cc1
[14]
  AC50: > 70 µM (inactive)
Paired box protein Pax-8
  AC50: 7.23 µM (active)
[15]
  AC50: 31.7 µM (active)
